In patent publication US5010089A, “CCK antagonists and their use in treating gastrointestinal disorders” (Biomeasure, Inc., priority 1989, dated 1991):
Each block holds one compound with its values, some of them ahead of it.

Columns and labels:
gastric emptying = experiment: anti-spasmodic activity: effect on gastric emptying (charcoal meal) after CCK-8 in mice; format: in vivo, CF1 mice; settings: for ED50: Mus musculus, anti-spasmodic activity
Procedure: In vivo studies were made to test the therapeutic effect of α-N-(2-indolylcarbonyl) L-tryptyl-N'-phenylethylglycine (BIM-18216),α-N-(3-quinolylcarbonyl)-L-tryptyl-N'-phenylethylglycine (BIM-18225), α-N-(2-naphthylcarbonyl)-L-tryptyl-N'-phenylethylglycine (BIM-18226), and α-N-(2-indolylcarbonyl) D-tryptyl-N'-phenylethylglycine (BIM-18227). The effect of the foregoing compounds on gastric emptying was measured as the percentage of anti-spasmodic activity. Tests were carried out on female CF1 mice as follows. Mice weighing approximately 20 g were fasted overnight. Test compounds were administered in one of four ways: intraperitoneally (i.p.), subcutaneously (s.c.), intravenously (i.v.), or orally (p.o.). Test compounds administered orally were dissolved in a mixture of 75% by volume polyethylene glycol 400 NF, 15% by volume propylene glycol USP, and 10% by volume purified H2 O USP. For other methods of administration, the test compounds were dissolved in a solution of saline containing 10% DMSO (by volume) for i.v. administration; and in a solution of saline containing 10% DMSO (by volume) and 0.25% methylcellulose (by weight) for s.c. or i.p. administration. Test compounds were administered to the mice 15 minutes prior to administering CCK-8 (40 μg/kg, s.c.). The mice were fed a charcoal meal orally 5 minutes after CCK injection and the animals were sacrificed 5 minutes later. The lengths of the intestines filled with charcoal were measured and the % of anti-spasmodic activity was calculated based upon the lengths according to the following formula: [formula]
Table 2, below, contains data on the anti-spasmodic activity of the compounds tested by oral administration.
Table 3, below, contains data for the test compound BIM-18216 administered in each of the four different ways discussed above.

Pancreatic CCK Receptor = molecular target: T1, Pancreatic CCK Receptor (Rattus norvegicus, UniProt P30551); experiment: [125I]CCK8 binding assay, pancreatic membranes; set-up: species or system Sprague-Dawley rats; settings: [125I]CCK8 0.05 nM, rat pancreas membranes, 90 min, 25° C.
T1 construct: the pancreas or cerebral was removed and homogenized; from tissue; host or cells: pancreas of male Sprague-Dawley rats, membrane preparation
T1 sequence (P30551 1-444): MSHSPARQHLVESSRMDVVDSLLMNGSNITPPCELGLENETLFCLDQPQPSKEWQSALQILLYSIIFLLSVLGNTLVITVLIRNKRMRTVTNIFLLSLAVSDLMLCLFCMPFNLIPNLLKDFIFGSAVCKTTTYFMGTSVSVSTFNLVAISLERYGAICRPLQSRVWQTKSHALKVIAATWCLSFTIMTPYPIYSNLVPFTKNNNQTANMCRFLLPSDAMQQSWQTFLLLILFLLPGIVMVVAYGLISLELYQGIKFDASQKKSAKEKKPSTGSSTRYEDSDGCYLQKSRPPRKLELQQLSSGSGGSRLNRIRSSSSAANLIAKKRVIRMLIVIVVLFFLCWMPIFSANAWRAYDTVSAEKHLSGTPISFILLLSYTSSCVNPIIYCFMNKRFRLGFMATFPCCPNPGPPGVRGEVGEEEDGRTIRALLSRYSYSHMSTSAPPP
Procedure: Inhibition studies of CCK by specific compounds of the present invention were carried out as follows. Male, Sprague-Dawley rats were sacrificed by decapitation and the pancreas or cerebral was removed and homogenized with a Brinkman Polytron (setting 6, 15 sec). The homogenates were centrifuged twice at 39,000 g for 10 min (4° C.), with an intermediate resuspension in fresh buffer. The final pellets were resuspended in the following buffer for the [^125 I]CCK8 binding assay: 10 mM HEPES, 118 mM NaCL, 4.7 mM KCl, and 5 mM MgCL2, 1 mM EGTA, 5 mg/ml bovine serum albumin, and 0.25 mg/ml bacitracin.
For the [^125 I]CCK8 binding assay, aliquots of the membrane preparations were added to plastic culture tubes containing 0.05 nM [^125 I]CCK8 (2200 Ci/mmol, New England Nulclear Corp ) and various concentrations of the test compounds in a final volume of 0.5 ml. The incubation period was 90 min (25° C.). The binding reaction was terminated by the addition of 4 ml of ice-cold buffer, followed by filtration through Whatman GF/B filters which had been previously soaked in 2% bovine serum albumin. Each tube and filter were then washed three times with 4-ml aliquots of ice-cold buffer. The radioactivity trapped on the filters was counted in an LKB Clini Gamma counter. Specific binding was defined as the total [^125 I]CCK8 bound minus that bound in the presence of 1 μM unlabeled CCK8.
Table 1 sets forth data from inhibition studies of CCK by specific compounds of the present invention in which Ar, m, and A are defined as set forth below: […]

[1] = Table 2, 125 mg/kg p.o., 15 min before CCK-8 (40 μg/kg, s.c.), 125 mg/kg
[2] = Table 2, 125 mg/kg p.o., 15 min before CCK-8 (40 μg/kg, s.c.)
[3] = Table 2, 100 mg/kg p.o., 15 min before CCK-8 (40 μg/kg, s.c.)

Compound: O=C(O)CN(CCc1ccccc1)C(=O)C(Cc1c[nH]c2ccccc12)NC(=O)c1cc2ccccc2[nH]1 [BIM-18216, α-N-(2-indolylcarbonyl) L-tryptyl-N'-phenylethylglycine]
ED50 (gastric emptying; ip): 5.8 mg/kg | ED50 (gastric emptying; iv): 6.6 mg/kg | ED50 (gastric emptying; po): 96.7 mg/kg | ED50 (gastric emptying; sc): 4.5 mg/kg | % Anti-Spasmodic Activity (gastric emptying; [1]): 78% | % Anti-Spasmodic Activity (gastric emptying; Table 3, 1 mg/kg i.p., 15 min before CCK-8): 1% | % Anti-Spasmodic Activity (gastric emptying; Table 3, 1 mg/kg s.c., 15 min before CCK-8): 1% | % Anti-Spasmodic Activity (gastric emptying; Table 3, 5 mg/kg i.p., 15 min before CCK-8): 45% | % Anti-Spasmodic Activity (gastric emptying; Table 3, 5 mg/kg i.v., 15 min before CCK-8): 36% | % Anti-Spasmodic Activity (gastric emptying; Table 3, 5 mg/kg s.c., 15 min before CCK-8): 53% | % Anti-Spasmodic Activity (gastric emptying; Table 3, 10 mg/kg i.v., 15 min before CCK-8): 70% | % Anti-Spasmodic Activity (gastric emptying; Table 3, 10 mg/kg s.c., 15 min before CCK-8): 75% | % Anti-Spasmodic Activity (gastric emptying; Table 3, 25 mg/kg i.p., 15 min before CCK-8): 91% | % Anti-Spasmodic Activity (gastric emptying; Table 3, 25 mg/kg i.v., 15 min before CCK-8): 123% | % Anti-Spasmodic Activity (gastric emptying; Table 3, 25 mg/kg s.c., 15 min before CCK-8): 108% | % Anti-Spasmodic Activity (gastric emptying; Table 3, 50 mg/kg p.o., 15 min before CCK-8): 10% | % Anti-Spasmodic Activity (gastric emptying; Table 3, 50 mg/kg s.c., 15 min before CCK-8): 112% | % Anti-Spasmodic Activity (gastric emptying; Table 3, 75 mg/kg p.o., 15 min before CCK-8): 47% | % Anti-Spasmodic Activity (gastric emptying; Table 3, 100 mg/kg p.o., 15 min before CCK-8): 56% | % Anti-Spasmodic Activity (gastric emptying; Table 3, 125 mg/kg p.o., 15 min before CCK-8): 81% | % Anti-Spasmodic Activity (gastric emptying; Table 3, 250 mg/kg p.o., 15 min before CCK-8): 88% | % Anti-Spasmodic Activity (gastric emptying; Table 3, 500 mg/kg p.o., 15 min before CCK-8): 105%

Compound: O=C(O)CN(CCc1ccccc1)C(=O)C(Cc1c[nH]c2ccccc12)NC(=O)c1ccc2ccccc2n1 [2-quinolyl, α-N-(2 quinolylcarbonyl) L-tryptyl-N'-phenylethylglycine]
IC50 (Pancreatic CCK Receptor): 170 nM

Compound: O=C(O)CN(CCc1ccccc1)C(=O)C(Cc1c[nH]c2ccccc12)NC(=O)c1cnc2ccccc2c1 [BIM-18225, α-N-(3-quinolylcarbonyl)-L-tryptyl-N'-phenylethylglycine]
% Anti-Spasmodic Activity (gastric emptying; [2]): 22%

Second part, led by results:

IC50 (Pancreatic CCK Receptor): 30 nM
Compound: O=C(O)CN(CCc1ccccc1)C(=O)C(Cc1c[nH]c2ccccc12)NC(=O)c1cc2ccccc2[nH]1 [BIM-18227, α-N-(2-indolylcarbonyl) D-tryptyl-N'-phenylethylglycine]
% Anti-Spasmodic Activity (gastric emptying; [3]): 24% | % Anti-Spasmodic Activity (gastric emptying; [1]): 60%

IC50 (Pancreatic CCK Receptor): 500 nM
Compound: O=C(O)CN(CCc1ccccc1)C(=O)C(Cc1c[nH]c2ccccc12)NC(=O)c1ccc2ccccc2c1 [BIM-18226, α-N-(2-naphthylcarbonyl)-L-tryptyl-N'-phenylethylglycine]
% Anti-Spasmodic Activity (gastric emptying; [3]): 35% | % Anti-Spasmodic Activity (gastric emptying; [2]): 88%
